Measured values as given in paper PMC4280898, “Diazido Mixed-Amine Platinum(IV) Anticancer Complexes Activatable by Visible-Light Form Novel DNA Adducts” (Chemistry (Weinheim an Der Bergstrasse, Germany), 2013).
Values joined by “and” are separate entries in the source; they are usually repeats but may differ in a detail not shown here. Identical values can stand only once.

Experiments:
calf thymus DNA = assay: Characterisation of DNA adducts with thiourea; format: binding; details: in the dark; for Total adducts displaced from DNA by thiourea after 24 h: 10 mM thiourea; for Bifunctional adducts after 24 h: thiourea probe
Description: Characterisation of DNA adducts: The experiments aimed at the characterisation of DNA adducts of photoactivated 1 or 2, and of 5 or 6 in the dark were conducted employing thiourea as a probe of DNA monofunctional adducts of trans-platinum(II) compounds[24] (for details, see the Supporting Information). After 24 h, 55(±10), 48(±2), 66(±1) and 64(±3) % of the total adducts of platinum complexes 1, 2, 5 and 6, respectively, were displaced from DNA by thiourea (Figure 10). Thus, only 45, 52, 34 and 36 % of DNA adducts formed by 1 or 2 (photoactivated) and 5 or 6 (in the dark), respectively, had evolved to bifunctional lesions after this time interval.
Figure 10 Quantification of DNA adducts by thiourea. Dependence of rb on incubation time for calf thymus DNA modified by photoactivated: A) 1, or B) 2 (420 nm light); and in the dark with: C) 5, or D) 6. Reactions were stopped with thiourea (10 mM; 10 min, 310 K; ▴) or without thiourea (▪), and the platinum associated with DNA was assessed. […]
assayed by differential pulse polarography for free, unbound platinum.[16] The amount of platinum bound to DNA was calculated by subtracting the amount of free (unbound) platinum from the total amount of platinum present in the reaction.
Transcription mapping of DNA adducts in vitro
The 212-bp DNA fragment used was yielded from cutting of pSP73KB DNA by NdeI and HpaI restriction endonucleases (a substantial part of the nucleotide sequence is […]
This fragment contained T7 RNA polymerase promoter (in the upper strand close to its 3'-end). This linear DNA fragment was randomly modified by transplatin (8), cisplatin (7), 5 and 6 in the dark and by 1 and 2 photoactivated with 420 nm light at rb = 0.01, for RNA synthesis by T7 RNA polymerase. The fragments produced in RNA synthesis on the template modified by the platinum complexes were analysed by a 6% polyacrylamide/8M urea sequencing gel.
Quantification of DNA adducts
Double-helical calf thymus DNA at a concentration of 32 µg/mL was incubated with 5 or 6 in the dark, or alternatively, DNA mixed with 1 or 2 was irradiated for 30min (λirrad = 420 nm) and then incubated in the dark in 10 mM NaClO4 at 310 K. At various time intervals the aliquots were withdrawn and the platination reaction was stopped by addition of 10 mM thiourea, samples were incubated for 10 min at […] and then quickly cooled to 253 K. In parallel experiments, 100 mM NaCl was added to the samples instead of thiourea and samples were immediately cooled to 253 K.
(§1) Platinum associated with DNA was assessed by flameless atomic absorption […]
(§2) Quantification of DNA interstrand cross-links […]

pSP73KB plasmid DNA = assay: DNA interstrand cross-linking, denaturing agarose gel; format: biochemical; details: in the dark
Description: Interstrand cross-links: In this experiment, interstrand cross-linking efficiency of photoactivated 1 or 2, and of 5 or 6 in the dark was investigated using pSP73KB plasmid DNA. The DNA samples were treated with complexes 5 or 6 in the dark or with 1 or 2 under irradiation conditions and then were analysed by agarose gel electrophoresis under denaturing conditions. The interstrand cross-linked DNA appears in the autoradiogram as the top bands (Figure 11), which migrate more slowly than the single-strand DNA (the bottom bands). The frequencies of interstrand cross-links formed by photoactivated 1 or 2, and 5 and 6 (in the dark) were 23(±5), 19(±3), 9(±3) and 16(±2) %, respectively.
Figure 11 Agarose gel electrophoresis for quantification of DNA interstrand cross-linking. The interstrand cross-links (ICLs) by: A) 1 or 2 under irradiation conditions (420 nm light), and B) 5 or 6 in the dark were formed in linear pSP73KB plasmid DNA. A) Lane 1: control, non-modified DNA; lane 2: control, non-modified DNA, but irradiated; lanes 3–7: DNA modified by photoactivated 1 at rb=3.35×10^−5, 6.70×10^−5, 3.35×10^−4, 6.70×10^−4, 3.35×10^−3, respectively; lanes 8–12: DNA modified by photoactivated 2 at rb=3.70×10^−5, 7.40×10^−5, 3.70×10^−4, 7.40×10^−4, 3.70×10^−3, respectively. […]

[1] = test system: 212 bp NdeI–HpaI fragment of pSP73KB DNA; assay: Transcription mapping of DNA adducts (T7 RNA polymerase); format: biochemical; details: in the dark; rb=0.01
Description: Sequence preference of DNA adducts: Transcription mapping experiments were performed to determine the DNA binding sites for Pt complexes. The experiments were carried out using a linear 212 bp DNA fragment (sequence in Figure 9 B), randomly modified by transplatin (8), cisplatin (7), 5 or 6 in the dark or by 1 and 2 photoactivated with blue light (420 nm) at rb=0.01 (rb is defined as the number of the molecules of platinum complex coordinated per nucleotide residue), for RNA synthesis by T7 RNA polymerase (Figure 9 A, lanes 8, 7, 5, 6, 1 and 2, respectively). RNA synthesis on the template modified by the platinum complexes produced fragments of defined sizes (Figure 9 A), which indicate the sites where RNA synthesis was prematurely terminated. It should be noted that RNA synthesis by T7 RNA polymerase is prematurely terminated only due to the platinum adducts on the template strand.[23] […] The ability to bind to A and C sites is consistent with the result from AMP and CMP binding experiments (Figure S18 in the Supporting Information).
Figure 9 Inhibition of RNA synthesis by T7 RNA polymerase on the NdeI–HpaI fragment of pSP73KB plasmid DNA modified by complexes 5 or 6, cisplatin (7) or transplatin (8) in the dark, or with photoactivated 1 or 2 (420 nm light). A) Autoradiogram of a polyacrylamide (6 %)/urea (8 M) sequencing gel. […]
assayed by differential pulse polarography for free, unbound platinum.[16] The amount of platinum bound to DNA was calculated by subtracting the amount of free (unbound) platinum from the total amount of platinum present in the reaction. […]
This fragment contained T7 RNA polymerase promoter (in the upper strand close to its 3'-end). […] The fragments produced in RNA synthesis on the template modified by the platinum complexes were analysed by a 6% polyacrylamide/8M urea sequencing gel.
Quantification of DNA adducts […]
as §1, §2

Structure (SMILES) | Total adducts displaced from DNA by thiourea after 24 h (calf thymus DNA) | Bifunctional adducts after 24 h (calf thymus DNA) | Interstrand cross-link (pSP73KB plasmid DNA) | Sequence specificity [1]
C[NH2+][Pt@SP3-2]([Cl])([Cl])[n+]1ccsc1 [Complex 6, trans-[PtCl2(MA)(Tz)]] | 64(±3) % | 36% and 36±2% | 16(±2) % and 16±2% | stop sites mainly at G and C and G, C
C[NH2+][Pt@SP3-2]([Cl])([Cl])[n+]1ccccc1 [Complex 5, trans-[PtCl2(MA)(Py)]] | 66(±1) % | 34% and 34±1% | 9(±3) % and 9±3% | stop sites mainly at G and C and G, C
